Legend:
Assay type in all cases: cell-based
[1] = tested on: human zona pellucida (bonding of human sperm); assay: Zona pellucida bonding test in humans (hemizona); conditions: 4 hours at 37° C.
Description: For the zona bonding test in humans, the ejaculate of normo-zoospermatocidal donor semen is prepared with use of SpermFertil^(R) glass wool columns (Mello Ltd., FRG). The filtrates were washed and resuspended in HFT-HSA (HFT=human tubal fluid medium according to Quinn et al., supplemented with 10 mg/ml of human serum albumin=HSA).
All human oocytes are obtained from post mortem material. Provision is made at all times to ensure that all legal, ethical and moral guidelines during the entire process are strictly followed.
Unless otherwise indicated, the oocytes are stored in 36.6 mmol of HEPES buffer, pH 7.4, which contains […] MgCl2 and 0.1% PVP at 4° C.
The experiments consist of three incubation drops that contain 10 μl of a standard HTF-HSA medium (see above) and 40 μl of working medium (see below). A specific number of oocytes (for TEM) or hemizonae for the bonding was added to each drop to ensure bonding. For the bonding experiments, a 10 μl sperm drop (50×10^6/ml) was added to each drop, covered with mineral oil, and incubated for 4 hours at 37° C. in 5% CO2. The statistical evaluation was done according to the non-parametric Mann-Whitney two-sample test.
Composition of the working medium: 20 μl of 5 mmol NaH2PO4 (adjusted with phosphoric acid), pH 2.5, plus 20 μl of a specially composed doubly-concentrated HTF-HSA medium, mixed at a ratio of 1:1 (vol/vol).
Composition of the doubly-concentrated HTF-HSA medium: […]

capacitated human sperm = assay: Acrosome reaction in capacitated human sperm
[2] = tested on: mouse zona pellucida (bonding of mouse sperm); assay: Zona pellucida bonding test in mice (sperm bonding to isolated zonae); conditions: 20 sperm bonds per zona corresponds to 100%
Description: (§1) To recover sperm, a mouse buck is sacrificed, and the two epididymal appendages are removed and transferred into the prepared small Petri dishes [see above under b)]. The tissue parts are cut in the medium, so that the sperm can escape. The sperm are capacitated for one hour in the incubator. After the capacitation time has been completed, the sperm are diluted 1:5 with BWW/0.3 BSA. For counting in the counting chamber, a 1:1 aliquot is diluted with doubly distilled H2O. The desired sperm concentration is 40,000-80,000/0.1 ml.
(§2) The animals are sacrificed 13 hours after the HCG injection, and the tubes are removed and transferred into the prepared small Petri dishes [see above under a)]. Pending further processing, the small dishes are kept at 37° C. on the warming plate. Under the stereomicroscope, the tubes that are in oil are pulled apart. In this case, the cumulus clouds pour out, which then are transferred into the prepared medium drops (two cumulus clouds per drop).
The sperm and oocytes are obtained as described in in vitro fertilization.
The oocytes that are obtained as under I.2.3. are taken up by a finely drawn Pasteur pipette, whose diameter must be somewhat smaller than the diameter of the oocytes, with a few μl of BWW medium. This process is repeated several times and finally causes the zonae pellucida to burst. The cytoplasmic portion of the ooctyes is released, and the isolated zona pellucida is collected for further tests and covered in 0.1 ml of BWW medium with equilibrated oil and kept at 37° C.
The capacitated mouse sperm (see I.2.2) are preincubated for 15 minutes either with a solvent or the desired substance, and then 0.1 ml drops are added to the isolated zonae pellucidae, in such a way that the incubation volume is a total of 0.2 ml (under oil). About 20 zonae pellucidae are studied per drop. The sperm concentration per drop is between 10,000 and 30,000 per μl. Sperm and zonae are incubated for 45 minutes in an incubator (see Description under I.2). After the incubation period, the number of bonded sperm per zona is evaluated under an inverse microscope. The upper limit of the sperm, which have yet to be counted exactly, is 20 sperm per zona pellucida under control conditions.
10,000 Sperm per 0.01 ml with 20 sperm bonds per zonae corresponds to 100%

[3] = tested on: mouse oocytes and sperm (in vitro fertilization); assay: Mouse in vitro fertilization; conditions: 24 hours incubation
Excerpt: I. In Vitro Fertilization
In vitro fertilization represents a test system that makes possible a first review of a contraceptive effect of substances. In this case, the possibility exists of studying whether the contraceptive effect can be attributed primarily to an inhibition of the sperm function(s) or to an inhibiting effect on the oocytes, or to the two above-mentioned effects.
Fertile female mice (CB6F1 strain) about 12 weeks of age; fertile male mice (CB6F1 strain) at least 14 weeks of age.
c) 0.1 ml of BWW/0.3% BSA, corresponding to the concentrations that are to be tested, is mixed with or without substance (control) for the fertilization (prepared after removal of the tubes), covered with equilibrated oil, and kept at 37° C.
10 injection units of PMS/0.1 ml are injected intrapericutaneously into the approximately 12-week-old fertile mice, and 54 hours later, 10 injection units of HCG/0.1 ml are administered.
as §1, §2
0.1 ml of dilute sperma-defined concentration is added to the oocytes that are in the medium drops and is incubated for 24 hours in the incubator at 37° C.
After incubating for 24 hours in the incubator, the following parameters are computed:
The fertilization rate corresponds to the number of divided oocytes per total number of intact oocytes.

sperm = assay: Sperm movement parameters

| Substance | % Inhibition of Sperm Bonding (Human) to the Human Zona Pellucida ([1]; 1 μg/ml peptide) | % Inhibition of Sperm Bonding (Human) to the Human Zona Pellucida ([1]; 10 μg/ml peptide) | triggering of the acrosome reaction (capacitated human sperm) | % Inhibition of Sperm Bonding (Mouse) to the Mouse Zona Pellucida ([2]; 1 μg/ml peptide) | % Inhibition of Sperm Bonding (Mouse) to the Mouse Zona Pellucida ([2]; 10 μg/ml peptide) | % Inhibition of Mouse In Vitro Fertilization ([3]; 0.1 μg/ml peptide) | % Inhibition of Mouse In Vitro Fertilization ([3]; 1 μg/ml peptide) | % Inhibition of Mouse In Vitro Fertilization ([3]; 10 μg/ml peptide) | % Inhibition of Sperm Bonding (Mouse) to the Mouse Zona Pellucida ([2]; 0.1 μg/ml peptide) | % Inhibition of Sperm Bonding (Mouse) to the Mouse Zona Pellucida ([2]; 100 μg/ml peptide) | influence on parameters of the sperm movement (sperm) |
| --- | --- | --- | --- | --- | --- | --- | --- | --- | --- | --- | --- |
| Ac-CGTPSHSRRQPHVMS-NH2 [human ZPC (ZP3) peptide, residues 327-341] | 45% | 88% | do not trigger the acrosome reaction | – | – | – | – | – | – | – | – |
| Ac-QRPGHIQFQS-NH2 [Ac-QRPGHIQFQS-NH2 (reverse), reference compound] | – | – | – | 0% | 0% | – | – | – | – | – | – |
| Ac-SQFQIHGPRQ-NH2 | – | – | – | – | – | 0% | 63% | 5% | – | – | – |
| NH2-TRRCRTASHPVSASE-COOH (H-TRRCRTASHPVSASE-OH) [human ZPC (ZP3) peptide, residues 410-424] | 61% | 88% | – | – | 87% | – | – | – | 86% | – | – |
| NH2-SQFQIHGPRQ-COOH (H-SQFQIHGPRQ-OH) | – | – | – | 61% | 72% | 52% | 29% | 1% | – | – | – |
| NH2-TPT..PDQNASPY-COOH (H-TPTPDQNASPY-OH) [human ZPC (ZP3) peptide, residues 220-230] | 0% | 18% | – | – | – | – | – | – | – | – | – |
| NH2-SRNRRHVTEEADVT-COOH (H-SRNRRHVTEEADVT-OH) [human ZPC (ZP3) peptide, residues 348-361] | 0% | 0% | – | – | 85% | – | – | – | 69% | 82% | – |
| NH2-RYPRQGNVSS-COOH (H-RYPRQGNVSS-OH) [human ZPC (ZP3) peptide, residues 141-150] | 76% | 77% | do not trigger the acrosome reaction | – | 89% | – | – | – | 71% | 91% | does not influence any parameters of the sperm movement |
